Common to all, as to format: cell-based
The target in one test is human KOR (Homo sapiens, UniProt P41145). The test is described as follows: GloSensor assay, Gi-mediated cAMP inhibition in HEK-293T cells transfected with human KOR. The conditions noted are these: given as Log IC50 (negative values); agonist activity, inhibition of FSK-stimulated cAMP; read-out: GloSensor Assay (Log IC50) KOR (converted).
The target in the next test is MOR (Homo sapiens, UniProt P35372). The test can be described thus: GloSensor assay at MOR. The conditions noted are these: given as Log IC50 (negative values).
For the next test, the target named is DOR (Homo sapiens, UniProt P41143). The test can be described thus: GloSensor assay at DOR. The conditions noted are these: given as Log IC50 (negative values).

This is an account of results in patent publication US20250368645A1, “BETA CARBOLINE ANALOGUES AS SELECTIVE AND BIASED KAPPA OPIOID RECEPTORS AGONISTS FOR TREATING VARIOUS ASSOCIATED PATHOPHYSIOLOGICAL CONDITIONS” (COUNCIL OF SCIENTIFIC AND INDUSTRIAL RESEARCH, priority 2022, published 2025).

Structures are written as SMILES.

Sequence of MOR (P35372 whole entry): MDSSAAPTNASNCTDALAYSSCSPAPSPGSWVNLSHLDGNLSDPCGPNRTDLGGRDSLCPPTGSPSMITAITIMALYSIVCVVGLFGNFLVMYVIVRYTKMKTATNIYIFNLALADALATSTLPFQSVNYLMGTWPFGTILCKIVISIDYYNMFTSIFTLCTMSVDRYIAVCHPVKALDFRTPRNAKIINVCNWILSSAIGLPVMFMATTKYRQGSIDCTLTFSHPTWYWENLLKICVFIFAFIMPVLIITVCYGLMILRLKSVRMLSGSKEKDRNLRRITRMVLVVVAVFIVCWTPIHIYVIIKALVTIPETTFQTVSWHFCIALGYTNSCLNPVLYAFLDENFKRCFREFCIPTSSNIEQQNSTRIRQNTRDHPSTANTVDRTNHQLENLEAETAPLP
Sequence of human KOR (P41145 whole entry): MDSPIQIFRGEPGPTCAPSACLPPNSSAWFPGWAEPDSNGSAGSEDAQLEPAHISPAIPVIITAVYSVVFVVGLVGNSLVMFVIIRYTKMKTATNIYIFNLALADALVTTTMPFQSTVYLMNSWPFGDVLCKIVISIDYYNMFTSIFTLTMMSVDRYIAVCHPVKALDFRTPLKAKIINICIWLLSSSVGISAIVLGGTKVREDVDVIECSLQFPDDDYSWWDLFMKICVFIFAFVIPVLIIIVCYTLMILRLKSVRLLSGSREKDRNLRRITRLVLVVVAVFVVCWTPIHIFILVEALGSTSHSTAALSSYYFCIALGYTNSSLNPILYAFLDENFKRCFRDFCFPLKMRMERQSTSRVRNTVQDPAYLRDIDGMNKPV
Sequence of DOR (P41143 whole entry): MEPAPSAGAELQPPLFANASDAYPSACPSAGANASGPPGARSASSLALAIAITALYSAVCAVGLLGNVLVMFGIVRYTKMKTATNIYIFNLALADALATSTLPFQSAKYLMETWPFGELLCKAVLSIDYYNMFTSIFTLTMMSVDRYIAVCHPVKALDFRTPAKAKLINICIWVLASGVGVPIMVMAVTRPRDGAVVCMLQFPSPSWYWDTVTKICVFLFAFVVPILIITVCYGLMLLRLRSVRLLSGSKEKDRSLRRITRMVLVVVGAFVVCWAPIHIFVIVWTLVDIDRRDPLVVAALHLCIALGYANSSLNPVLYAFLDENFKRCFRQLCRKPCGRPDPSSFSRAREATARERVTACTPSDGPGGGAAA

As to `Fc1ccc(-n2c[n+]3ccc4c5ccccc5[nH]c4c3c2-c2cccc(F)c2)cc1` [8aid, 1-(3-Fluorophenyl)-2-(4-fluorophenyl)-2,11-dihydroimidazo[1′,5′:1,2]pyrido[3,4-b]indol-4-ium], the figures for the half-inhibitory concentration (IC50) on human KOR, against MOR and at DOR were 0.2 µM, greater than 10 µM and greater than 10 µM, respectively.
As to `Cc1ccc(-c2c3c4[nH]c5ccccc5c4c4ccccc4[n+]3cn2-c2ccc(F)cc2)cc1` [12bc, 2-(4-Fluorophenyl)-1-(p-tolyl)-2,13-dihydrolmidazo[1,5-a]indolo[2,3-c]quinolin-4-ium chloride], the IC50 on human KOR, at MOR and against DOR was greater than 10 µM throughout.
On to `Clc1cccc(-n2c[n+]3ccc4c5ccccc5[nH]c4c3c2-c2ccccc2Br)c1` [8acf, 1-(2-Bromophenyl)-2-(3-chlorophenyl)-2,11-dihydroimidazo[1′,5′:1,2]pyrido[3,4-b]indol-4-ium chloride], for which the IC50 (as a rule, the midpoint of a concentration-inhibition curve) at human KOR was 0.0631 µM; against MOR, greater than 10 µM; at DOR, greater than 10 µM.
For `Clc1ccccc1-n1c[n+]2ccc3c4ccccc4[nH]c3c2c1-c1ccc(Br)cc1` [8abj, 1-(4-Bromophenyl)-2-(2-chlorophenyl)-2,11-dihydroimidazo[1′,5′:1,2]pyrido[3,4-b]indol-4-ium], the IC50 on human KOR was 0.251 µM; against MOR, 0.251 µM; at DOR, greater than 10 µM.
For the compound `Clc1cccc(-n2c[n+]3ccc4c5ccccc5[nH]c4c3c2-c2ccccc2)c1` [8aaf, 2-(3-Chlorophenyl)-1-phenyl-2,11-dihydroimidazo[1′,5′:1,2]pyrido[3,4-b]indol-4-ium chloride], the half-maximal inhibitory concentration (IC50) at human KOR, against MOR and against DOR was greater than 10 µM throughout.
In the case of `Fc1ccccc1-n1c[n+]2ccc3c4ccccc4[nH]c3c2c1-c1ccc(Br)cc1` [8abk, 1-(4-Bromophenyl)-2-(2-fluorophenyl)-2,11-dihydroimidazo[1′,5′:1,2]pyrido[3,4-b]indol-4-ium chloride], the IC50 at human KOR is 0.0794 µM; on MOR, greater than 10 µM; against DOR, greater than 10 µM.
Regarding `Brc1ccccc1-c1c2c3[nH]c4ccccc4c3cc[n+]2cn1-c1ccccc1` [8aca, 1-(2-Bromophenyl)-2-phenyl-2,11-dihydroimidazo[1′,5′:1,2]pyrido[3,4-b]indol-4-ium chloride], the half-maximal inhibitory concentration (IC50) at human KOR was 0.2 µM; against MOR, greater than 10 µM; on DOR, 3.16 µM.
Turning to `COc1ccc(-n2c[n+]3ccc4c5ccccc5[nH]c4c3c2-c2ccc(Br)cc2)cc1` [8abg, 1-(4-Bromophenyl)-2-(4-methoxyphenyl)-2,11-dihydrolmidazo[1′,5′:1,2]pyrido[3,4-b]indol-4-ium chloride], the IC50 on human KOR, at MOR and against DOR was greater than 10 µM throughout.
As to `Fc1ccc(-c2c3c4[nH]c5ccccc5c4cc[n+]3cn2-c2ccccc2)cc1` [8aga, 1-(4-Fluorophenyl)-2-phenyl-2,11-dihydroimidazo[1′,5′:1,2]pyrido[3,4-b]indol-4-ium chloride], the IC50 on human KOR, at MOR and on DOR was greater than 10 µM throughout.
On to `Fc1ccc(-c2c3c4[nH]c5ccccc5c4cc[n+]3cn2-c2ccc(Br)cc2)cc1` [8agb, 2-(4-Bromophenyl)-1-(4-fluorophenyl)-2,11-dihydroimidazo[1′,5′:1,2]pyrido[3,4-b]indol-4-ium chloride], for which the IC50 on human KOR, at MOR and against DOR was greater than 10 µM in each case.
For `Clc1ccc(-c2c3c4[nH]c5ccccc5c4cc[n+]3cn2-c2cccc(Br)c2)cc1` [8ade, 2-(3-Bromophenyl)-1-(4-chlorophenyl)-2,11-dihydroimidazo[1′,5′:1,2]pyrido[3,4-b]indol-4-ium chloride], the IC50 at human KOR, at MOR and at DOR was greater than 10 µM in each case.
Regarding `Fc1ccc(-n2c[n+]3c4ccccc4c4c5ccccc5[nH]c4c3c2-c2ccccc2)cc1` [12ad, 2-(4-Fluorophenyl)-1-phenyl-2,13-dihydroimidazo[1,5-a]indolo[2,3-c]quinolin-4-ium chloride], the IC50 at human KOR, on MOR and at DOR was greater than 10 µM throughout.
Consider `COc1ccc(Cn2c[n+]3ccc4c5ccccc5[nH]c4c3c2-c2ccc(Cl)cc2)cc1` [9abe, 1-(4-Chlorophenyl)-2-(4-methoxybenzyl)-2,11-dihydrolmidazo[1′,5′:1,2]pyrido[3,4-b]indol-4-ium chloride], for which the half-maximal inhibitory concentration (IC50) was 0.0759 µM on human KOR, greater than 10 µM against MOR and greater than 10 µM on DOR.
For the compound `Fc1cccc(-c2c3c4[nH]c5ccccc5c4cc[n+]3cn2-c2ccc(Cl)cc2)c1` [8aic, 2-(4-Chlorophenyl)-1-(3-fluorophenyl)-2,11-dihydrolmidazo[1′,5′:1,2]pyrido[3,4-b]indol-4-ium chloride], the concentration for half-maximal inhibition (IC50) at human KOR is 0.0912 µM; against MOR it was greater than 10 µM; against DOR, greater than 10 µM.
Regarding `c1ccc(-n2c[n+]3ccc4c5ccccc5[nH]c4c3c2-c2cc3ccccc3o2)cc1` [8amd, 1-(Benzofuran-2-yl)-2-phenyl-2,11-dihydroimidazo[1′,5′:1,2]pyrido[3,4-b]indol-4-ium chloride], the IC50 is 0.0398 µM at human KOR, greater than 10 µM at MOR and greater than 10 µM against DOR.
As to `COc1ccc(Cn2c[n+]3ccc4c5ccccc5[nH]c4c3c2-c2ccc(Br)cc2)cc1` [9aae], the half-inhibitory concentration (IC50) is 3.31 µM at human KOR, greater than 10 µM against MOR and greater than 10 µM on DOR.
`COC(=O)c1cc2c3ccccc3[nH]c2c2c(-c3ccc(Br)cc3)n(-c3ccc(Cl)cc3)c[n+]12` [8bbc, 1-(4-Bromophenyl)-2-(4-chlorophenyl)-5-(methoxycarbonyl)-2,11-dihydroimidazo[1′,5′:1,2]pyrido[3,4-b]indol-4-iumchloride]: the 50% inhibitory concentration (IC50) at human KOR, at MOR and at DOR was greater than 10 µM throughout.
For the compound `COc1ccc(Cn2c[n+]3ccc4c5ccccc5[nH]c4c3c2-c2ccc(Br)cc2)cc1OC` [9aag, 1-(4-Bromophenyl)-2-(3,4-dimethoxybenzyl)-2,11-dihydroimidazo[1′,5′:1,2]pyrido[3,4-b]indol-4-ium chloride], the results for the IC50 on human KOR, against MOR and against DOR were 0.166 µM, greater than 10 µM and greater than 10 µM, respectively.
`Fc1ccc(-c2c3c4[nH]c5ccccc5c4cc[n+]3cn2-c2ccc(Cl)cc2)cc1` [8agc, 2-(4-Chlorophenyl)-1-(4-fluorophenyl)-2,11-dihydrolmidazo[1′,5′:1,2]pyrido[3,4-b]indol-4-ium chloride]: the 50% inhibitory concentration (IC50) at human KOR, at MOR and against DOR was greater than 10 µM throughout.
In the case of `Brc1ccc(-c2c3c4[nH]c5ccccc5c4cc[n+]3cn2-c2ccc(Br)cc2)cc1` [8abb, 1,2-Bis(4-bromophenyl)-2,11-dihydroimidazo[1′,5′:1,2]pyrido[3,4-b]indol-4-ium chloride], the concentration for half-maximal inhibition (IC50) at human KOR, on MOR and at DOR was greater than 10 µM in each case.
Take `Clc1ccccc1-c1c2c3[nH]c4ccccc4c3cc[n+]2cn1-c1ccc(Br)cc1` [8aeb, 2-(4-Bromophenyl)-1-(2-chlorophenyl)-2,11-dihydroimidazo[1′,5′:1,2]pyrido[3,4-b]indol-4-ium chloride]: the IC50 on human KOR was greater than 10 µM; against MOR, 1.26 µM; against DOR, 2 µM.
For `Cn1c2ccccc2c2cc[n+]3cn(-c4ccc(Cl)cc4)c(-c4ccc(Br)cc4)c3c21` [8dbc, 1-(4-Bromophenyl)-2-(4-chlorophenyl)-11-methyl-2,11 dihydroimidazo[1′,5′:1,2]pyrido[3,4-b]indol-4-iumchloride], in that order: greater than 10 µM, greater than 10 µM and greater than 10 µM.
In the same order, the values of `Brc1ccc(-n2c[n+]3ccc4c5ccccc5[nH]c4c3c2-c2ccccc2)cc1` [8aab, 2-(4-Bromophenyl)-1-phenyl-2,11-dihydroimidazo[1′,5′:1,2]pyrido[3,4-b]indol-4-ium chloride] are 0.0661 µM, greater than 10 µM and greater than 10 µM.
For the compound `Fc1ccc(-n2c[n+]3ccc4c5ccccc5[nH]c4c3c2-c2ccc(Br)cc2)cc1F` [8abm, 1-(4-Bromophenyl)-2-(3,4-difluorophenyl)-2,11-dihydroimidazo[1′,5′:1,2]pyrido[3,4-b]indol-4-ium chloride], the IC50 at human KOR, on MOR and on DOR was greater than 10 µM in each case.
Turning to `Fc1ccc(-c2c3c4[nH]c5ccccc5c4cc[n+]3cn2-c2cccc(Br)c2)cc1` [8age, 2-(3-Bromophenyl)-1-(4-fluorophenyl)-2,11-dihydroimidazo[1′,5′:1,2]pyrido[3,4-b]indol-4-ium chloride], the half-inhibitory concentration (IC50) at human KOR, against MOR and at DOR was greater than 10 µM each time.
Regarding `Fc1ccc(Cn2c[n+]3ccc4c5ccccc5[nH]c4c3c2-c2ccc(Br)cc2)cc1` [9aab, 1-(4-Bromophenyl)-2-(4-fluorobenzyl)-2,11-dihydroimidazo[1′,5′:1,2]pyrido[3,4-b]indol-4-ium chloride], the half-maximal inhibitory concentration (IC50) on human KOR was 0.263 µM; against MOR, greater than 10 µM; at DOR it was greater than 10 µM.
For `Clc1ccc(-c2c3c4[nH]c5ccccc5c4cc[n+]3cn2Cc2ccsc2)cc1` [9acj, 1-(4-Chlorophenyl)-2-(thiophen-3-ylmethyl)-2,11-dihydroimidazo[1′,5′:1,2]pyrido[3,4-b]indol-4-ium chloride], the IC50 on human KOR, on MOR and at DOR was greater than 10 µM each time.
Turning to `Fc1ccc(-n2c[n+]3ccc4c5ccccc5[nH]c4c3c2-c2cccs2)cc1` [8and, 2-(4-Fluorophenyl)-1-(thiophen-2-yl)-2,11-dihydroimidazo[1′,5′:1,2]pyrido[3,4-b]indol-4-ium chloride], the IC50 on human KOR is 0.209 µM; at MOR, greater than 10 µM; on DOR it was greater than 10 µM.
